Converted amounts (≈) assume the structure as drawn. Like-named read-outs stand apart in the source and are kept apart here.
Assays:
[1] = system: carbapenemase producing K. pneumoniae; test: MIC by broth micro-dilution (CLSI), carbapenemase producing K. pneumoniae; format: cell-based, Klebsiella pneumoniae; details: Klebsiella pneumoniae, ATCCBAA1705, KPC-2 K. pneumoniae ATCC BAA-1705; read-out: MIC
[2] = system: carbapenem sensitive Pseudomonas aeruginosa; test: MIC by broth micro-dilution (CLSI), carbapenem sensitive P. aeruginosa; format: cell-based
[3] = system: carbapenem sensitive Escherichia coli; test: MIC by broth micro-dilution (CLSI), carbapenem sensitive E. coli; format: cell-based; details: Escherichia coli, ATCC25922, ESBL −ve E. coli ATCC25922; read-out: MIC
[4] = system: methicillin-sensitive Staphylococcus aureus; test: MIC by broth micro-dilution (CLSI), methicillin-sensitive S. aureus; format: cell-based; details: Staphylococcus aureus, MSSA S. aureus ATCC29213, read-out: MIC
[5] = Pseudomonas aeruginosa, ATCC27853, Meropenem susceptible P. aeruginosa ATCC27853, read-out: MIC

SMILES	MIC [1] [µg/mL]	MIC [2, 5] [µg/mL]	MIC [3] [µg/mL]	MIC ([4]; ATCC 29213 / MSSA) [µg/mL]	MIC ([2]; Meropenem susceptible P. aeruginosa ATCC27853) [µg/mL]	MIC ([4]; ATCC29213|MSSA) [µg/mL]
C[C@@H](NC(=O)Cn1cnnn1)[C@H]1C(=O)N2C(C(=O)O)=C(S[C@@H]3CN[C@H](C(=O)N4CC[C@@H](N(C)C)C4)C3)[C@H](C)[C@H]12 [Example 410, (4R,5S,6R)-6-((R)-1-(2-(1H-tetrazol-1-yl)acetamido)ethyl)-3-((3S,5S)-5-((R)-3-(dimethylamino)pyrrolidine-1-carbonyl)pyrrolidin-3-ylthio)-4-methyl-7-oxo-1-azabicyclo[3.2.0]hept-2-ene-2-carboxylic acid]	4 (≈ 7.12 µM)	4 (≈ 7.12 µM)	0.5 (≈ 0.89 µM)	2 (≈ 3.56 µM)	–	–
C[C@@H](NC(=O)Cn1cnnn1)[C@H]1C(=O)N2C(C(=O)O)=C(S[C@@H]3CN[C@H](CN4CC[C@@H](N)C4)C3)[C@H](C)[C@H]12 [Example 391]	0.5 (≈ 0.962 µM)	4 (≈ 7.7 µM)	0.5 (≈ 0.962 µM)	1 (≈ 1.92 µM)	–	–
C[C@@H](NC(=O)C(F)F)[C@H]1C(=O)N2C(C(=O)O)=C(S[C@@H]3CN[C@H](C(=O)N4CCc5nc(N)sc5C4)C3)[C@H](C)[C@H]12 [Example 235]	16 (≈ 28 µM)	> 128	2 (≈ 3.5 µM)	2 (≈ 3.5 µM)	–	–
C[C@@H](NC(=O)Cn1cnnn1)[C@H]1C(=O)N2C(C(=O)O)=C(S[C@@H]3CN[C@H](C(=O)N4CC(N)(CC#N)C4)C3)[C@H](C)[C@H]12 [Example 424, (4R,5S,6R)-6-((R)-1-(2-(1H-tetrazol-1-yl)acetamido)ethyl)-3-((3S,5S)-5-(3-amino-3-(cyanomethyl)azetidine-1-carbonyl)pyrrolidin-3-ylthio)-4-methyl-7-oxo-1-azabicyclo[3.2.0]hept-2-ene-2-carboxylic acid]	2 (≈ 3.58 µM)	16 (≈ 28.6 µM)	0.25 (≈ 0.448 µM)	16 (≈ 28.6 µM)	–	–
C[C@@H](NC(=O)C(F)F)[C@H]1C(=O)N2C(C(=O)O)=C(S[C@@H]3CN[C@H](CNC(=O)[C@@H]4C[C@H](N)CN4)C3)[C@H](C)[C@H]12 [Example 259]	16 (≈ 30.2 µM)	> 128	4 (≈ 7.54 µM)	2 (≈ 3.77 µM)	–	–
C[C@@H](NC(=O)Cn1cnnn1)[C@H]1C(=O)N2C(C(=O)O)=C(S[C@@H]3CN[C@H](C(=O)N4C[C@H]5CC[C@@H](C4)[C@H]5N)C3)[C@H](C)[C@H]12 [Example 345, (4R,5S,6R)-6-((R) - 1-(2-(1H-tetrazol-1-yl)acetamido)ethyl)-3-((3S,5S)-5-((1R,5S,8S)-8-amino-3-azabicyclo[3.2.0]octane-3-carbonyl)pyrrolidin-3-ylthio)-4-methyl-7-oxo-1-azabicyclo[3.2.0]hept-2-ene-2-carboxylic acid]	32 (≈ 55.8 µM)	128 (≈ 223 µM)	8 (≈ 13.9 µM)	64 (≈ 112 µM)	–	–
C[C@@H](NC(=O)Cn1cnnn1)[C@H]1C(=O)N2C(C(=O)O)=C(S[C@@H]3CN[C@H](C(=O)N4CCC(C(=O)N5CC[C@@H](N)C5)CC4)C3)[C@H](C)[C@H]12 [Example 428, (4R,5S,6R)-6-((R)-1-(2-(1H-tetrazol-1-yl)acetamido)ethyl)-3-((3S,5S)-5-(4-((R)-3-aminopyrrolidine-1-carbonyl)piperidine-1-carbonyl)pyrrolidin-3-ylthio)-4-methyl-7-oxo-1-azabicyclo[3.2.0]hept-2-ene-2-carboxylic acid]	4 (≈ 6.2 µM)	2 (≈ 3.1 µM)	0.5 (≈ 0.775 µM)	4 (≈ 6.2 µM)	–	–
C[C@@H](NC(=O)Cn1cnnn1)[C@H]1C(=O)N2C(C(=O)[O-])=C(S[C@@H]3CN[C@H](C(=O)N4CCC5C[N+](C)(C)CCC54)C3)[C@H](C)[C@H]12 (some centres unmarked) [Example 598]	2 (≈ 3.32 µM)	–	1 (≈ 1.66 µM)	–	16 (≈ 26.6 µM)	8 (≈ 13.3 µM)
